# Data reported in PubChem BioAssay AID1259420 (Broad Institute, 2018).
# Values joined by “and” are separate entries in the source; they are usually repeats but may differ in a detail not shown here. Equal values may be shown once. Results filed as inconclusive are left out. Active and inactive are the calls of the source. No rule for the calls is given here.
# System: Toxoplasma gondii growth in host cells, no IFN-gamma
# Experiment: compound activity on host-cell Toxoplasma growth – dose response (AID 1259420);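 also: host cells were HeLa; final incubation lasted 72 hours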
row,Structure (SMILES),AC50
1,O=C(Cc1ccccc1)N1CC[C@H]2[C@H](CO)Nc3ccc(C4=CCCCC4)cc3[C@H]21,13.9 µM
2,O=C(Cc1ccccc1)N1CC(=O)N2[C@H](C1)[C@@H](c1ccc(-c3ccc(F)cc3)cc1)[C@@H]2CO,24.7 µM
3,CCOC(=O)N1CCC(N[C@H]2COC[C@@H]2OCC)CC1,36.8 µM
4,COc1ccc(NC(=O)N2CCCCN3[C@H](CO)[C@@H](c4ccc(-c5ccccc5F)cc4)[C@H]3C2)cc1,19.7 µM
5,Cc1ccc(Nc2nc(N)nc(CN3CCc4ccccc4C3)n2)cc1,> 10 µM (inactive)
6,CN1c2ccc(-c3ccc(C#N)cc3)cc2[C@@H]2[C@@H](CCN2S(=O)(=O)c2ccc(F)cc2)[C@@H]1CO,13 µM
7,CN1CCC2(C=C(C(=O)N3CCCC3)c3ccccc32)CC1,> 39 µM (inactive)
8,COc1cccc(-c2ccc3c(c2)[C@@H]2[C@@H](CCN2C(=O)c2ccccc2F)[C@H](CO)N3C)c1,8.81 µM and 10.2 µM
9,CN(C)Cc1noc2c1CN(Cc1nccn1C)CC2,> 39 µM (inactive)
10,C/C=C/c1ccc([C@H]2[C@H](CO)N3CCCCN(S(=O)(=O)c4ccc(OC)cc4)C[C@@H]23)cc1,19.1 µM
11,C=C(C)[C@@H]1CC[C@]2(C(=O)O)CC[C@]3(C)[C@H](CC[C@@H]4[C@@]5(C)CC[C@H](O)C(C)(C)[C@@H]5CC[C@]43C)[C@@H]12,26.9 µM
12,CCCNC(=O)N1[C@H](C#N)[C@H](c2ccc(-c3ccccc3F)cc2)[C@@H]1CO,4.65 µM
13,COc1ccccc1-c1ccc(C2[C@H]3CNC[C@@H]2N3S(=O)(=O)c2ccc(F)cc2)cc1 (some centres undefined),> 20 µM (inactive)
14,COc1cccc(S(=O)(=O)N2CCCCN3[C@H](CO)[C@@H](c4ccc(C#CCC(C)C)cc4)[C@@H]3C2)c1,19 µM
15,O=C(Nc1ccc(F)cc1)N1CC(=O)N2[C@H](CO)[C@H](c3ccc(-c4cccc(F)c4)cc3)[C@H]2C1,31.1 µM
16,Cc1cc(C)cc(S(=O)(=O)N2CCC3(CC2)NCCN=C3NCc2ccc(C(F)(F)F)cc2)c1,18.7 µM
17,O=C(CCCCCCNC(=O)c1cnc(N(c2ccccc2)c2ccccc2)nc1)NO,14.8 µM
18,O=C(Nc1cccc(F)c1)N1CCCCN2[C@H](CO)[C@H](c3ccc(C#Cc4cccnc4)cc3)[C@H]2C1,16.4 µM
19,CCOC(=O)c1nn(Cc2ccccc2)c2c1CN(C(=O)CN1CC(c3ccccc3)CC1=O)CC2 (centres undefined),28.6 µM
20,CC(C)(C)c1ccc(S(=O)(=O)N2CCC[C@@H]2C(=O)NCCc2csc(-c3ccccc3)n2)cc1,> 39 µM (inactive)
21,COC(=O)[C@@H]1C[C@@H](N(C)C)CN1S(=O)(=O)c1c(C)ccc2nsnc12,> 39 µM (inactive)
22,CCN1CCN(Cc2ccc(Nc3nc(-c4ccc(OC)cc4)nc4ccccc34)cc2)CC1,13.5 µM

row,Structure (SMILES),AC50
1,CCCCCCCCCCCCCCCC[n+]1ccccc1,6.86 µM
2,CC(C)(C)OC(=O)Nc1cc(-c2cn[nH]c2C2CCCN(C(=O)OC(C)(C)C)C2)ccn1 (centres undefined),> 20 µM (inactive)
3,O=C(Cc1ccc(Cl)cc1)N1CC2(CCN(Cc3ccc(C(F)(F)F)cc3)CC2)C1,> 39 µM (inactive)
4,CCc1c2c(nc3ccc(OC(=O)N4CCC(N5CCCCC5)CC4)cc13)-c1cc3c(c(=O)n1C2)COC(=O)[C@]3(O)CC,24.7 µM
5,COc1cc2c(cc1O)CC[C@@H]1[C@@H]2CC[C@]2(C)[C@@H](O)CC[C@@H]12,11.2 µM and 5.79 µM
6,Cc1ccccc1S(=O)(=O)N1C[C@@H]2N[C@H](C1)C2c1ccc(-c2cccc(C#N)c2)cc1 (some centres undefined),13.3 µM and 14.8 µM and 31.3 µM
7,CCc1ccc(S(=O)(=O)N2CCC3(CCCN(Cc4c(C)noc4C)C3)C2)cc1 (centres undefined),35.4 µM
8,CCCCOc1ccc2c(=O)c(-c3cc(C(=O)OC)oc3C)c(C(F)(F)F)oc2c1C,8.86 µM and 8.94 µM
9,N#Cc1cccc(-c2ccc(C3[C@@H]4CN(Cc5ccccc5)C[C@H]3N4)cc2)c1 (some centres undefined),13.1 µM
10,COc1ccccc1C(=O)Nc1ccc(-c2nc(-c3ccc(C)cc3C)co2)cc1,21 µM
11,CS(=O)(=O)NCc1cnc2n1CCN(Cc1cccs1)CC2,25.6 µM
12,Cc1cc(C)n(C)c(=O)c1C(=O)N1CCOC(C(F)(F)F)C1 (centres undefined),> 39 µM (inactive)
13,COc1cccc(S(=O)(=O)N2CCCCN3[C@H](CO)[C@@H](c4ccc(C#CCC(C)C)cc4)[C@H]3C2)c1,12.1 µM and 13.6 µM and 21.9 µM
14,Cc1ccc(S(=O)(=O)N2CC[C@@H]3[C@H]2c2cc(-c4ccccc4F)ccc2N(C)[C@H]3CO)cc1,20.4 µM
15,O=C(C[C@H]1CC[C@H]2[C@@H](COC[C@H](O)CN2Cc2ccc(Oc3ccccc3)cc2)O1)N1CCN(c2ccccc2)CC1,27.6 µM
16,CN1C(=O)c2cc(NC(=O)Cc3cccs3)ccc2OC[C@H]2O[C@H](CC(=O)NCc3ccc(-c4ccccc4)cc3)CC[C@@H]21,29.4 µM
17,Cn1cnc(S(=O)(=O)N2CCCCN3[C@H](CO)[C@H](c4ccc(C5=CCCCC5)cc4)[C@@H]3C2)c1,23.4 µM and 22.7 µM
18,COc1cccc(-c2nc3c(s2)CN(S(=O)(=O)c2ccccc2C)CC3)c1,34.7 µM
19,CCc1cnc(N2[C@H](C#N)[C@H](c3ccc(C#Cc4ccccc4F)cc3)[C@@H]2CO)s1,11.3 µM
20,CCCc1ccc(S(=O)(=O)N2CCC[C@@H]2C(=O)NCCc2csc(-c3ccccc3)n2)cc1,18.7 µM
21,CN(C[C@H]1N[C@@H](CO)[C@@H]1c1ccc(C2=CCCC2)cc1)C(=O)c1cccc(F)c1,3.41 µM and 4.45 µM
22,COc1ccccc1S(=O)(=O)N1CC[C@@H]2[C@@H](CO)Nc3ccc(-c4ccc(C#N)cc4)cc3[C@@H]21,19.8 µM
